Experimental data taken from patent US20260060969A1, “METHODS FOR THE TREATMENT OF LYMPHOPROLIFERATIVE DISORDERS” (INSTITUT NATIONAL DE LA SANTÉ ET DE LA RECHERCHE MÉDICALE, priority 2022, published 2026).

How the values were obtained:
NZBWF1/J mice = assay: Alpelisib in NZBWF1/J mice, model of lymphoproliferative disorders (spleen size, splenocyte flow cytometry); assay type: in vivo, mouse; settings: female NZBWF1/J mice aged 24 weeks, 4 weeks treatment, vs vehicle
Method: Inventors have first investigated the impact of PIK3CA inhibition in NZBWF1/J mice a model of lymphoproliferative disorders. They randomly assigned 30 females aged of 24 weeks to receive either vehicle (n=15) or alpelisib (n=15) during 4 weeks. At the end of the treatment period, mice were sacrificed and flow cytometry was performed in splenocytes.
(§1) FIG. 1: Alpelisib improves lymphoproliferative mouse models. A. Spleen to body weight ratio at the time of sacrifice (4 weeks following treatment either with vehicle or alpelisib) (n=5-15 mice per group). B-F. Percentage of spleen cell population determined by flow cytometry analysis in NZBWF1/J mice treated with either vehicle or alpelisib. Spleen to body weight ratio of MRL-lpr mice treated either with vehicle or alpelisib for 4 weeks (n=14 mice per group). Percentage of peripheral blood monuclear cell (PBMC), bone marrow, spleen and lymph nodes cell population determined by flow cytometry analysis in MRL-lpr mice treated with either vehicle or alpelisib for 4 weeks (n=8-9 mice per group). CD4, CD8, B220, Mac1, Gr1 are used as lineage markers.
We first investigated the impact of PIK3CA inhibition in NZBWF1/J mice a model of lymphoproliferative disorders. We randomly assigned 30 females aged of 24 weeks to receive either vehicle (n=15) or alpelisib (n=15) during 4 weeks. At the end of the treatment period, mice were sacrificed and flow cytometry was performed in splenocytes.

[1] = tested on: MRL/MpJ-Faslpr/J mice (MRL-lpr); assay: Alpelisib in MRL/MpJ-Faslpr/J (MRL-lpr) mice, model of lymphoproliferative disorder (spleen and lymph node size, flow cytometry); assay type: in vivo, mouse; settings: 4 weeks
Source text: They then decided to explore the relevance of alpelisib in MRL/MpJ-Faslpr/J mice (referred here as MRL-lpr), another mouse model of lymphoproliferative disorder. These mice with homozygous Fas mutation usually develop severe lymphadenoproliferation. Female mice die at an average of 18-20 weeks old. They first randomly assigned to either vehicle or alpelisib MRL-lpr female mice at 8 weeks old, before they fully develop diseases.
as §1
FIG. 2: Alpelisib modifies mononuclear cell population in MRL-lpr mice. Flow cytometry analysis of bone marrow, spleen, lymph nodes, and PBMC in MRL-lpr mice treated either with vehicle or alpelisib for 4 weeks (n=8-9 mice per group). CD4, CD8, B220, Mac1, Gr1 are used as lineage markers.
We then decided to explore the relevance of alpelisib in MRL/MpJ-Faslpr/J mice (referred here as MRL-lpr), another mouse model of lymphoproliferative disorder. These mice with homozygous Fas mutation usually develop severe lymphadenoproliferation. Female mice die at an average of 18-20 weeks old. We first randomly assigned to either vehicle or alpelisib MRL-lpr female mice at 8 weeks old, before they fully develop diseases.

PROS patients = PROS patients in poor condition; earlier work told in the background; cited from earlier work
[2] = MRL-lpr mice, PBMC, lymph nodes and spleen
[3] = female MRL-lpr mice treated from 8 weeks old, at sacrifice, vs vehicle

Cc1nc(NC(=O)N2CCC[C@H]2C(N)=O)sc1-c1ccnc(C(C)(C)C(F)(F)F)c1 [alpelisib]
spleen size (spleen to body weight ratio, FIG. 1A) (NZBWF1/J mice; at sacrifice): significantly reduced
B cells (flow cytometry in splenocytes) (NZBWF1/J mice; spleen): significantly reduced
CD8 cells count (flow cytometry in splenocytes) (NZBWF1/J mice; spleen): corrected
B cells (flow cytometry) [1, 2]: correction
T cells (flow cytometry) [1, 2]: correction
other immune cells (flow cytometry) [1, 2]: correction
lymph node size [1, 3]: reduction
spleen size [1, 3]: reduction
clinical, biological and radiological outcome (PROS patients): clinical, biological and radiological improvements
